From the NIST ThermoML archive (doi:10.1016/j.jct.2013.01.010)

How the values were obtained:
[1] = xn = mol fraction of the nth substance listed; conditions: 101 kPa, Liquid; for speed of sound: Sing-around technique in a fixed-path interferometer; for mass density: Vibrating tube method
[2] = excess molar enthalpy (molar enthalpy of mixing); xn = mol fraction of the nth substance listed; conditions: 298.15 K, 101 kPa, Liquid, 2-Drop Calorimetry

CCn1cc[n+](C)c1.F[B-](F)(F)F [1-ethyl-3-methylimidazolium tetrafluoroborate] + C[S+](C)[O-]
[1]
Conditions | mass density, 293.15 K [kg/m3] | mass density, 298.15 K [kg/m3] | mass density, 303.15 K [kg/m3] | mass density, 308.15 K [kg/m3] | speed of sound, 293.15 K [m/s] | speed of sound, 298.15 K [m/s] | speed of sound, 303.15 K [m/s] | speed of sound, 308.15 K [m/s]
x1 = 0.1319 | 1154.13 | 1149.63 | 1145.2 | 1140.37 | 1533 | 1514.8 | 1498.7 | 1481.3
x1 = 0.1819 | 1170.55 | 1166.13 | 1161.81 | 1157.02 | 1544.4 | 1526.6 | 1510.3 | 1492.8
x1 = 0.2336 | 1185.68 | 1181.3 | 1177.06 | 1172.25 | 1556.2 | 1538.6 | 1522.2 | 1504.7
x1 = 0.2909 | 1200.5 | 1196.12 | 1191.89 | 1187.15 | 1567.8 | 1551 | 1535.1 | 1517.4
x1 = 0.3417 | 1212.05 | 1207.64 | 1203.45 | 1198.76 | 1577.3 | 1561.5 | 1545.4 | 1528.1
x1 = 0.3799 | 1219.83 | 1215.48 | 1211.24 | 1206.59 | 1584 | 1568.7 | 1552.3 | 1535.9
x1 = 0.4215 | 1227.57 | 1223.18 | 1219.02 | 1214.39 | 1589.9 | 1575.8 | 1559.5 | 1543.2
x1 = 0.4719 | 1236 | 1231.61 | 1227.4 | 1222.88 | 1596.3 | 1583.7 | 1567.7 | 1552
x1 = 0.5335 | 1244.97 | 1240.56 | 1236.44 | 1232.02 | 1602.8 | 1591.2 | 1575.8 | 1560.5
x1 = 0.5782 | 1250.68 | 1246.29 | 1242.17 | 1237.86 | 1606.2 | 1595.6 | 1580.4 | 1566.1
x1 = 0.6198 | 1255.44 | 1251.13 | 1247.04 | 1242.76 | 1608.8 | 1598.6 | 1584.3 | 1571
x1 = 0.6717 | 1260.78 | 1256.5 | 1252.45 | 1248.28 | 1611 | 1601.8 | 1588.6 | 1575.9
x1 = 0.7204 | 1265.23 | 1260.99 | 1257 | 1252.91 | 1613 | 1604.4 | 1591.7 | 1579.7
x1 = 0.7737 | 1269.58 | 1265.39 | 1261.48 | 1257.45 | 1614.7 | 1606.4 | 1594.6 | 1583.2
x1 = 0.8219 | 1273.1 | 1268.95 | 1265.1 | 1261.11 | 1616.4 | 1607.9 | 1596.8 | 1586
x1 = 0.8783 | 1276.82 | 1272.74 | 1268.97 | 1264.97 | 1619.2 | 1610.3 | 1599.7 | 1588.9
x1 = 0.9041 | 1278.42 | 1274.36 | 1270.62 | 1266.61 | 1621 | 1611.6 | 1601.1 | 1590.4
x1 = 0.9249 | 1279.65 | 1275.62 | 1271.9 | 1267.87 | 1622.6 | 1612.9 | 1602.2 | 1591.6

[2]
Conditions | excess molar enthalpy [kcal/mol]
x1 = 0.1116 | -0.104
x1 = 0.1785 | -0.159
x1 = 0.2157 | -0.192
x1 = 0.2854 | -0.233
x1 = 0.3259 | -0.256
x1 = 0.3981 | -0.281
x1 = 0.4368 | -0.285
x1 = 0.4852 | -0.29
x1 = 0.5111 | -0.291
x1 = 0.5729 | -0.281
x1 = 0.6255 | -0.26
x1 = 0.6899 | -0.232
x1 = 0.7365 | -0.208
x1 = 0.7943 | -0.168
x1 = 0.8338 | -0.137
x1 = 0.8896 | -0.0906
x1 = 0.9012 | -0.0839
x1 = 0.9258 | -0.0619
